Here are results for 5 molecules from patent publication US8222417B2, “Compound having 11β-HSD1 inhibitory activity” (Taisho Pharmaceutical Co., Ltd, priority 2007, dated 2012).

Structures are written as SMILES.

In the assay the target is T1, 11β-HSD1 (Homo sapiens, UniProt P28845).
T1 construct: human liver microsome (enzyme source, Tissue Transformation Technologies); tissue Tissue Transformation Technologies; host or cells: human liver microsomes
Description: 11β-HSD1 inhibition test (human liver microsome, HTRF cortisol detection). It is filed as biochemical. To be noted: human liver microsome as enzyme source; cortisone 100 nM; 20° C., 80 minutes; generated cortisol quantified by HTRF. On the procedure:
Test Example [11β-HSD1 Inhibition Test]
Test Compounds were Evaluated as Follows.
11β-HSD1 enzyme reaction was performed in a reaction solution of 100 μl total volume using 96-well polypropylene microplates. The reaction solution was prepared in 30 mM Tris-HCl (pH 7.4)/1 mM EDTA buffer to contain NADPH at a final concentration of 100 μM, G6P at a final concentration of 1 mM, human liver microsome (enzyme source, Tissue Transformation Technologies) at a final concentration of 0.8 μg/ml and 10 μl of a test compound dissolved in DMSO. The enzyme reaction was initiated by addition of cortisone at a final concentration of 100 nM. After incubation at 20° C. for 80 minutes, 10 μl of 1 mM 18β glycyrrhetinic acid, which is a non-specific inhibitor, was added to stop the reaction. Next, the amount of generated cortisol was quantified with a detection kit (Sceti Medical Labo K.K., Japan) according to the HTRF (Homogeneous Time-Resolved Fluorescence) method. This system detects fluorescence resonance energy transfer between europium-labeled anti-cortisol antibody and XL665-labeled cortisol. Upon addition of unlabeled cortisol, binding signals will be attenuated due to competitive reaction. Based on this principle, the amount of cortisol generated by the enzyme reaction was evaluated using a standard curve obtained from samples with known concentrations of cortisol included in the kit. The HTRF reaction was performed in 96-well half area microplates as follows: to 30 μl enzyme reaction solution, an anti-cortisol antibody solution (15 μl) and an XL665-labeled cortisol solution (15 μl) included in the kit were added, and the plates were vortexed at room temperature for 1 hour and further allowed to stand at 20° C. for 1 hour. 40 μl of this reaction solution was transferred to 384-well microplates and measured for its fluorescence. 18β Glycyrrhetinic acid was added to wells before initiation of the enzyme reaction and the amount of cortisol generated in these wells was used as a background level. Test compounds were evaluated using serial dilutions at a common ratio of 3 to calculate their IC50 values, assuming that the amount of cortisol generated in wells containing no test compound was set to 100% enzyme activity.
Background: Microsomes from liver hold many membrane-bound enzymes, among them those of drug oxidation.

T1 sequence (P28845 whole entry): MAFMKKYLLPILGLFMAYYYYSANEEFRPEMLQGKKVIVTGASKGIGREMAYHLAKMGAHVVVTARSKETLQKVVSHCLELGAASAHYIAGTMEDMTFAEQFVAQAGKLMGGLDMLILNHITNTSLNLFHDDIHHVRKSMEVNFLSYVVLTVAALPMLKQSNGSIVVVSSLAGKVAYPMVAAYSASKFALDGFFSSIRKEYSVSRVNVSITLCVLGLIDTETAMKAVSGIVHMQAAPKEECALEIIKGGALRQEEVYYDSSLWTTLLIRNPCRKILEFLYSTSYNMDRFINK

Consider `Cc1cccc2c1N(C(=O)N[C@H]1C3CC4CC1C[C@](O)(C4)C3)CCO2` [Compound 25, N-(E-5-hydroxyadamantan-2-yl)-5-methyl-2,3-dihydro-4H-1,4-benzoxazine-4-carboxamide], for which the IC50 is 1.1 nM.

In turn, `O=C(OC1C2CC3CC1CC(O)(C3)C2)N1CCOc2ccc(F)cc21` (centres unmarked) [Compound 44b, E-5-hydroxyadamantan-2-yl 6-fluoro-2,3-dihydro-4H-1,4-benzoxazine-4-carboxylate] registered an IC50 of 9.5 nM. With `O=C(N[C@H]1C2CC3CC1C[C@](F)(C3)C2)N1CCCc2ccccc21` [Compound 12, N-(E-1-fluoroadamantan-4-yl)-3,4-dihydroquinoline-1(2H)-carboxamide] the figure was 1 nM. In the case of `Cc1ccc2c(c1)N(C(=O)OC1C3CC4CC1CC(O)(C4)C3)CCO2` (centres unmarked) [Compound 43b, E-5-hydroxyadamantan-2-yl 6-methyl-2,3-dihydro-4H-1,4-benzoxazine-4-carboxylate] it was 3.2 nM.

In turn, `O=C(N[C@H]1C2CC3CC1C[C@](O)(C3)C2)N1CCCc2ccc(F)cc21` [Compound 3, 7-fluoro-N-(E-1-hydroxyadamantan-4-yl)-3,4-dihydroquinoline-1(2H)-carboxamide] gave an IC50 of 1 nM.

The term IC50 denotes the concentration that inhibits the measured activity by half. High values mean weaker potency in that assay, low ones greater potency in that assay.
